According to BindingDB's records for PubMed 1646322 (Mayo Clinic, 1991):
pKi: −log10 of the molar value.

Tests used:
[1] = target: T1, Muscarinic acetylcholine receptor M4 (Rattus norvegicus, UniProt P08485)
T1 sequence (P08485 whole entry): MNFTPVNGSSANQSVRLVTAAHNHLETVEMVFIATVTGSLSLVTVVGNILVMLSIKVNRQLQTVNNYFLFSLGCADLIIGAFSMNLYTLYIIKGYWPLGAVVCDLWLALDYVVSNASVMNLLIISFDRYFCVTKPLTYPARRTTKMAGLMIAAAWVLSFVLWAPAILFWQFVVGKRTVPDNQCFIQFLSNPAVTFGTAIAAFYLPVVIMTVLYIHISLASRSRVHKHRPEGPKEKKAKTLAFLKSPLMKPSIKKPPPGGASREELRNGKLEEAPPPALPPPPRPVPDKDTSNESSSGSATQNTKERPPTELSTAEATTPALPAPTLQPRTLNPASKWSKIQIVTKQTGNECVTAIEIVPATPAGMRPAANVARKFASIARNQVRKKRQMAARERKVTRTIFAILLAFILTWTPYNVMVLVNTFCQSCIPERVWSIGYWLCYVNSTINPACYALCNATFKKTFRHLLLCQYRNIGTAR

[2] = target: T2, Muscarinic acetylcholine receptor M1 (Rattus norvegicus, UniProt P08482)
T2 sequence (P08482 whole entry): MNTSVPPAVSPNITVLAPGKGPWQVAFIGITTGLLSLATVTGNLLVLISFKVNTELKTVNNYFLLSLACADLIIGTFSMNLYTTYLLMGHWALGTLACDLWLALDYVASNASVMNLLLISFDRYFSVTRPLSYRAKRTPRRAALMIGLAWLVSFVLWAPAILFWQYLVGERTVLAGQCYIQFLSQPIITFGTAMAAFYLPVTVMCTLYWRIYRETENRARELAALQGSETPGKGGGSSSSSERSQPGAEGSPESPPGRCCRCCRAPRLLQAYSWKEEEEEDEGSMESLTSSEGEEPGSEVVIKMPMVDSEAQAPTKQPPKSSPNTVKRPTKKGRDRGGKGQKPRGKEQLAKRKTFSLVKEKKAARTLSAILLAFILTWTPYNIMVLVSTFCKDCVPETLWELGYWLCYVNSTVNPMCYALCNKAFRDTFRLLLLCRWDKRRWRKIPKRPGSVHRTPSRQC

SMILES | pKi [1] | pKi [2]
COc1ccccc1CNCCCCCCNCCCCCCCCNCCCCCCNCc1ccccc1OC [METHOCTRAMINE] | 6.39 | –
C[N+]1(C)CCC(OC(=O)C(c2ccccc2)c2ccccc2)CC1 | 8.85 | –
CCN(CC)CC1CCCCN1CC(=O)N1c2ccccc2C(=O)Nc2cccnc21 (stereo not drawn) [(AF-DX 116) 11-[2-(2-Diethylaminomethyl-piperidin-1-yl)-acetyl]-5,11-dihydro-benzo[e]pyrido[3,2-b][1,4]diazepin-6-one] | 6.21 | 5.92
CCN(CCCC(=O)C1CCCCC1)C(C)Cc1ccc(OC)cc1 (stereo not drawn) [NSC_42470] | 8.11 | 8.23
O[Si](CCCN1CCCCC1)(c1ccccc1)C1CCCCC1 (stereo not drawn) [HHSiD] | 7.33 | 7.22
